Test results as given in patent US11299494B2, “Substituted imidazo[1,2-b]pyridazines as interleukin-23 and interferon-α modulators” (BRISTOL-MYERS SQUIBB COMPANY, priority 2016, dated 2022).
pEC50, pIC50: −log10 of the molar value.

Tests used:
[1] = system: IFNa Kit225 Reporter (Kit225 T cells with STAT-dependent luciferase reporter); assay: Kit225 T cell assay, IFNα stimulated STAT-dependent luciferase reporter; type: cell-based; settings: 200 U/mL human recombinant IFNα, 5-6 hours
Method: (§1) Kit225 T cells with a stably-integrated STAT-dependent luciferase reporter were plated in RPMI (GIBCO) containing 10% heat-inactivated FBS (GIBCO) and 100 U/mL PenStrep (GIBCO). The cells were then stimulated with either 20 ng/mL human recombinant IL-23 or 200 U/mL human recombinant IFNα (PBL InterferonSource) for 5-6 hours. Luciferase expression was measured using the STEADY-GLO® Luciferase Assay System (PROMEGA®) according to the manufacturer's instructions. Inhibition data were calculated by comparison to no inhibitor control wells for 0% inhibition and non-stimulated control wells for 100% inhibition. Dose response curves were generated to determine the concentration required to inhibit 50% of cellular response (IC50) as derived by non-linear regression analysis.

[2] = molecular target: T1, human Tyk2 (amino acids 575-869, His-tagged) (Homo sapiens, UniProt P29597); assay: Probe displacement assay (scintillation proximity, radiolabeled probe); type: binding; settings: 2.5 nM Tyk2 (575-869), 40 nM tritiated probe, 30 minutes at room temperature
T1 construct: made in house
T1 sequence (P29597 with tags, fused parts or gaps): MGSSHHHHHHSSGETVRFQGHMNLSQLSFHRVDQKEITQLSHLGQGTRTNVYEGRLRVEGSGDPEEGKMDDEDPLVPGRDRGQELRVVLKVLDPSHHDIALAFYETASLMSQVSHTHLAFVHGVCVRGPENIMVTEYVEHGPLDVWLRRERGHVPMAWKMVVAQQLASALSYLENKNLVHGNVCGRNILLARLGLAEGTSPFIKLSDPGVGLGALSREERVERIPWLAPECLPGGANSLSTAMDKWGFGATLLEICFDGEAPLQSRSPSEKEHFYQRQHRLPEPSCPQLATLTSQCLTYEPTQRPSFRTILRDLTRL
Method: The probe displacement assay is conducted as follows: In a […], test compounds along with recombinantly expressed His-tagged protein corresponding to amino acids 575-869 of human Tyk2 (sequence shown below) at 2.5 nM, 40 nM ((R)—N-(1-(3-(8-methyl-5-(methylamino)-8H-imidazo[4,5-d]thiazolo[5,4-b]pyridin-2-yl)phenyl)ethyl)-2-([^3H]methylsulfonyl)benzamide) (preparation described below) and 80 μg/mL Copper His-Tag scintillation proximity assay beads (Perkin Elmer, Catalog #RPNQ0095) in 50 mM HEPES, pH 7.5, containing 100 μg/mL bovine serum albumin and 5% DMSO were incubated for 30 minutes at room temperature. The amount of radiolabeled probe (preparation described below) bound to Tyk2 was then quantified by scintillation counting, and the inhibition by the test compound calculated by comparison to wells either with no inhibitor (0% inhibition) or without Tyk2 (100% inhibition). The IC50 value is defined as the concentration of test compound required to inhibit radiolabeled probe binding by 50%.
Protein Sequence of recombinant Hig-tagged Tyk2 (575-869):
The preparation of radiolabeled probe, (R)—N-(1-(3-(8-methyl-5-(methylamino)-8H-imidazo[4,5-d]thiazolo[5,4-b]pyridin-2-yl)phenyl)ethyl)-2-([^3H]methylsulfonyl)benzamide, was performed as described below:
2-([^3H]methylsulfonyl)benzoic acid: 2-Mercaptobenzoic acid (2.3 mg, 0.015 mmol) and cesium carbonate (2 mg, 0.006 mmol) were added to a 5 mL round-bottomed flask. The flask was attached to a ported glass vacuum line and anhydrous DMF (0.5 mL) was introduced with magnetic stirring. An ampoule of tritiated methyl iodide (200 mCi, Perkin-Elmer lot 3643419) was added to the reaction flask and stirring was maintained at rt for 3 h. In-process HPLC analysis with radiometric detection indicated 80% conversion to the desired product by comparison with authentic standard. Without purification, the crude product was reacted with mCPBA (10 mg, 0.058 mmol) pre-dissolved in CH2Cl2 (1 mL) at room temperature with stirring. The reaction was stirred for 7 h and additional mCPBA (10 mg, 0.058 mmol) was added. The reaction was stirred for approximately 24 h and HPLC analysis indicated 35-40% conversion to the desired […] product. The crude product was purified by semi-preparative HPLC (Luna Sum C18 (10×250 cm); A: MeOH/H2O=15/85 (0.1% TFA); B: MeOH; 270 nm; 0-8 min 0% B 1 ml/min; 8-10 min 0% B 1-3 ml/min; 10-55 min 0% B 3 ml/min; 55-65 min 0-10% B 3 ml/min; 65-75 min 10-50% B 3 ml/min; 75-80 min 50-100% B 3 ml/min) to give 81 mCi (40% radiochemical yield) of 2-([^3H]methylsulfonyl)benzoic acid product identified by its HPLC co-elution with an authentic standard. The radiochemical purity was measured by HPLC to be 99% (Luna 5u C18 (4.6×150 cm); A: H2O (0.1% TFA); B: MeOH; 1.2 ml/min; 270 nm; 0-10 min 20% B; 10-15 min 20-100% B; 15-25 min 100% B. The product was dissolved in anhydrous acetonitrile to give a final solution activity of 5.8 mCi/mL. (R)—N-(1-(3-(8-methyl-5-(methylamino)-8H-imidazo[4,5-d]thiazolo[5,4-b]pyridin-2-yl)phenyl)ethyl)-2-([^3H]methylsulfonyl)benzamide: A solution of 2-([^3H]methylsulfonyl)benzoic acid (23.2 mCi) in acetonitrile was added to a 5 mL round-bottomed flask which was then attached to a vacuum line and carefully evaporated to dryness. (R)-2-(3-(1-aminoethyl)phenyl)-N,8-dimethyl-8H-imidazo[4,5-d]thiazolo[5,4-b]pyridin-5-amine (prepared as described in WO 2004/106293 and Dyckman et al., Bioorganic and Medicinal Chemistry Letters, 383-386 (2011)) (1.1 mg, 0.0033 mmol) and PyBOP (2 mg, 0.0053 mmol) dissolved in anhydrous DMF (1.5 mL) were added to the flask followed by N,N-diisopropylethylamine (0.010 mL). The resulting clear solution was stirred at room temperature for 18 h. […]

[3] = system: IL-23 Kit225 Reporter (Kit225 T cells with STAT-dependent luciferase reporter); assay: Kit225 T cell assay, IL-23 stimulated STAT-dependent luciferase reporter; type: cell-based; settings: 20 ng/mL human recombinant IL-23, 5-6 hours
Method: as §1

pIC50 [1]	pEC50 [2]	pIC50 [3]	Compound
5.88	7.66	5.68	CNc1cc(-n2cc(C(=O)NCC(C)(C)O)c3ccccc32)nn2c(C(=O)NC3CC3)cnc12 [Example 1, N-cyclopropyl-6-(3-((2-hydroxy-2-methylpropyl)carbamoyl)-1H-indol-1-yl)-8-(methylamino)imidazo[1,2-b]pyridazine-3-carboxamide]
5.95	8.30	6.09	CCNC(=O)c1cn(-c2cc(NC)c3ncc(C(=O)NC4CC4)n3n2)c2ccccc12 [Example 2]
5.32	7.72	4.90	CNc1cc(-n2cc(C(=O)N3CCC(O)CC3)c3ccccc32)nn2c(C(=O)NC3CC3)cnc12 [Example 3]
5.91	7.66	5.72	CNc1cc(-n2cc(C(=O)Nc3cccnc3)c3ccccc32)nn2c(C(=O)NC3CC3)cnc12 [Example 4]
5.38	7.60	5.71	CNc1cc(-n2cc(C(=O)Nc3ccccc3)c3ccccc32)nn2c(C(=O)NC3CC3)cnc12 [Example 5]
5.02	7.51	4.90	CNc1cc(-n2cc(C(=O)NCCC(N)=O)c3ccccc32)nn2c(C(=O)NC3CC3)cnc12 [Example 6]
6.03	7.46	5.79	CNc1cc(-n2cc(C(=O)NCC(C)C)c3ccccc32)nn2c(C(=O)NC3CC3)cnc12 [Example 7]
6.27	7.43	6.24	CNc1cc(-n2cc(C(=O)NCCOC)c3ccccc32)nn2c(C(=O)NC3CC3)cnc12 [Example 8]
5.84	7.40	5.51	CNc1cc(-n2cc(C(=O)NC(C)C)c3ccccc32)nn2c(C(=O)NC3CC3)cnc12 [Example 9]
6.05	8.22	5.96	CNc1cc(-n2cc(C(=O)NCC(C)(C)O)c3ccccc32)nn2c(C(=O)NC3CCC3)cnc12 [Example 10]
6.16	8.00	5.86	CNc1cc(-n2cc(C(=O)NC3CCOCC3)c3ccccc32)nn2c(C(=O)NC3CCC3)cnc12 [Example 11]
5.89	7.74	5.76	CNc1cc(-n2cc(C(=O)N3CCOCC3)c3ccccc32)nn2c(C(=O)NC3CCC3)cnc12 [Example 12]
5.90	7.60	6.53	CNc1cc(-n2cc(C(=O)NCC(C)(C)O)c3cccnc32)nn2c(C(=O)NC3CC3)cnc12 [Example 13]
5.76	7.54	5.44	CNc1cc(-n2cnc3ccccc32)nn2c(C(=O)NC3CC3)cnc12 [Example 14]
5.63	7.34	6.19	CNc1cc(-n2ccc3c(OC)cccc32)nn2c(C(=O)NC3CC3)cnc12 [Example 15]
5.94	6.91	6.02	CNc1cc(-n2ccc3ncccc32)nn2c(C(=O)NC3CC3)cnc12 [Example 16]
6.57	7.80	6.45	CNC(=O)c1nn(-c2cc(NC)c3ncc(C(=O)NC4CC4)n3n2)c2ccccc12 [Example 17, N-cyclopropyl-8-(methylamino)-6-(3-(methylcarbamoyl)-1H-indazol-1-yl)imidazo[1,2-b]pyridazine-3-carboxamide]
6.29	7.40	6.15	CNc1cc(-n2nc(C(=O)N3CCOCC3)c3ccccc32)nn2c(C(=O)NC3CC3)cnc12 [Example 18]
6.32	7.21	6.29	CNc1cc(-n2nc(C(=O)N(C)C)c3ccccc32)nn2c(C(=O)NC3CC3)cnc12 [Example 19]
6.32	7.12	6.03	CNc1cc(-n2nc(C(=O)NCC(C)(C)O)c3ccccc32)nn2c(C(=O)NC3CC3)cnc12 [Example 20]
6.36	7.89	6.18	CNc1cc(-n2ccc3ccccc32)nn2c(C(=O)NC3CC3)cnc12 [Example 21]
4.90	7.32	4.90	CNc1cc(-n2cc(C(=O)O)c3ccccc32)nn2c(C(=O)NC3CCC3)cnc12 [Example 22]
